28 compounds from ChEMBL document CHEMBL1138627, “1-Methyl and 1-(2-hydroxyalkyl)-5-(3-alkyl/cycloalkyl/phenyl/naphthylureido)-1H-pyrazole-4-carboxylic acid ethyl esters as potent human neutrophil chemotaxis inhibitors” (Bioorg Med Chem, 2009) can be followed below.

Data set [1] has as its system Neutrophil. In words: Reduction of chemotaxis in human neutrophils assessed as inhibition of fMLP-OMe-induced cell migration pretreated 10 mins before fMLP-OMe challenge. The format is functional, cell-based.
The subject of data set [2] is Neutrophil. In words: Reduction of chemotaxis in human neutrophils assessed as inhibition of IL8-induced cell migration pretreated 10 mins before IL8 challenge. The format is functional, cell-based.
Data set [3] can be described thus: Cytotoxicity against human neutrophils assessed as LDH release. The conditions noted are these: neutrophil. Details: concentration or dose not given beside the values. The format is cell-based. (In general: LDH leaks from cells whose membrane has failed.)
The subject of data set [4] is Neutrophil. The experiment in a line: Inhibition of chemotaxis in human neutrophils assessed as reduction of fMLP-OMe-induced cell migration at 10 uM relative to control. The format is functional.
Data set [5] has as its system Mus musculus. In words: Antiinflammatory activity against zymosan-induced peritonitis in Swiss mouse assessed as protein concentration at 50 mg/kg, po administered 1 hr before zymosan challenge by spectrophotometry. The format is functional.
The test system of data set [6] is Mus musculus. In words: Antiinflammatory activity against zymosan-induced peritonitis in Swiss mouse assessed as monocyte and lymphocyte content in peritoneal cavity at 50 mg/kg, po administered 1 hr before zymosan challenge measured after 4 hrs. The format is functional.
For data set [7], the system named is Mus musculus. In words: Antiinflammatory activity against zymosan-induced peritonitis in Swiss mouse assessed as inhibition of granulocyte infiltration into peritoneal cavity at 50 mg/kg, po administered 1 hr before zymosan challenge measured after 4 hrs. It counts as functional. Details: scale not given: the % may be the effect or the level left.
Data set [8] concerns Mus musculus. The experiment in a line: Antiinflammatory activity against zymosan-induced peritonitis in Swiss mouse assessed as peritoneal protein concentration at 3 mg/kg, po administered 1 hr before zymosan challenge by spectrophotometry. The format is functional.
Data set [9] deals with Mus musculus. In words: Antiinflammatory activity against zymosan-induced peritonitis in Swiss mouse assessed as granulocyte content in peritoneal cavity lavage at 3 mg/kg, po administered 1 hr before zymosan challenge measured after 4 hrs. The format is functional.
The test system of data set [10] is Mus musculus. In words: Antiinflammatory activity against zymosan-induced peritonitis in Swiss mouse assessed as monocyte and lymphocyte content in peritoneal cavity lavage at 3 mg/kg, po administered 1 hr before zymosan challenge measured after 4 hrs. It counts as functional.
Data set [11] relates to Mus musculus. The experiment in a line: Antiinflammatory activity against zymosan-induced peritonitis in Swiss mouse assessed as inhibition of granulocyte infiltration into peritoneal cavity at 3 mg/kg, po administered 1 hr before zymosan challenge measured after 4 hrs. It counts as functional. Details: scale not given: the % may be the effect or the level left.
The test system of data set [12] is Mus musculus. In words: Antiinflammatory activity against zymosan-induced peritonitis in Swiss mouse assessed as inhibition of granulocyte infiltration into peritoneal cavity at 100 mg/kg, po administered 1 hr before zymosan challenge measured after 4 hrs. The format is functional.

For the compound `CCOC(=O)c1cnn(CC(C)O)c1NC(=O)NCc1ccccc1` (stereo not drawn), the figures for the IC50 in the data set on Neutrophil [1] (read-out: IC50) and in the data set on Neutrophil [2] were 15 nM and 0.54 pM, respectively. Also, the Activity in [3] is less than 3%.
Consider `CCCC(O)Cn1ncc(C(=O)OCC)c1NC(=O)NCc1ccccc1` (stereo not drawn), for which, in the data set on Neutrophil [1] (read-out: IC50), the 50% inhibitory concentration (IC50) came out at 0.43 nM. Moreover, the Activity in data set [3] is less than 3%.
With `CCOC(=O)c1cnn(CC(O)CC)c1NC(=O)N1CCN(Cc2ccccc2)CC1` (stereo not drawn), the IC50 turned out to be 2000 nM in the data set on Neutrophil [1] (read-out: IC50) and 0.08 pM in the data set with Neutrophil [2]. The Activity in data set [3] is less than 3%.
As to `CCOC(=O)c1cnn(CC(O)c2ccccc2)c1NC(=O)NC(C)C` (stereo not drawn), the IC50 in the data set on Neutrophil [2] stood at 55000 pM.
Turning to `CCOC(=O)c1cnn(C)c1NC(=O)NC(C)C`, the half-maximal inhibitory concentration (IC50) with Neutrophil [1] (read-out: IC50) came to 77 nM; in the data set with Neutrophil [2], 1.8 pM. Also, in data set [3], the Activity was less than 3%.
Regarding `CCOC(=O)c1cnn(CC(O)CC)c1NC(=O)NCc1ccccc1` (stereo not drawn), in the data set with Neutrophil [1] (read-out: IC50), the IC50 is greater than 10 nM. The inhibition at 10 µM in the data set with Neutrophil [4] is 54%. For the same compound, the Activity in data set [3] is less than 3%.
With `CCCC(O)Cn1ncc(C(=O)OCC)c1NC(=O)NC(C)C` (stereo not drawn), the values for the IC50 with Neutrophil [1] (read-out: IC50) and in the data set with Neutrophil [2] were 20 nM and 1000 pM, respectively. Also, in data set [3], the Activity is on record as less than 3%.
For the compound `CCOC(=O)c1cnn(C)c1NC(=O)NCc1ccccc1`, the concentration for half-maximal inhibition (IC50) with Neutrophil [1] (read-out: IC50) was found to be 18 nM; in the data set with Neutrophil [2] it was 1300 pM. Moreover, the Activity in [3] was less than 3%.
For `CCOC(=O)c1cnn(CC(O)c2ccccc2)c1NC(=O)N1CCN(Cc2ccccc2)CC1` (stereo not drawn), in the data set on Neutrophil [2], the IC50 was 14000 pM.
As for `C/C=C/C[C@@H](C)[C@@H](O)[C@H]1C(=O)N[C@@H](CC)C(=O)N(C)CC(=O)N(C)[C@@H](CC(C)C)C(=O)N[C@@H](C(C)C)C(=O)N(C)[C@@H](CC(C)C)C(=O)N[C@@H](C)C(=O)N[C@H](C)C(=O)N(C)[C@@H](CC(C)C)C(=O)N(C)[C@@H](CC(C)C)C(=O)N(C)[C@@H](C(C)C)C(=O)N1C` [CYCLOSPORINE], the half-maximal inhibitory concentration (IC50) with Neutrophil [1] was determined as 0.047 nM.
Turning to `CCCC(O)Cn1ncc(C(=O)OCC)c1NC(=O)N1CCN(Cc2ccccc2)CC1` (stereo not drawn), the half-inhibitory concentration (IC50) in the data set with Neutrophil [1] (read-out: IC50) worked out at 1.1 nM; in the data set with Neutrophil [2] it was 90 pM. The Activity in data set [3] was less than 3%.
For the compound `CCOC(=O)c1cnn(CC(O)CC)c1NC(=O)Nc1cccc(F)c1` (stereo not drawn), the IC50 with Neutrophil [1] (read-out: IC50) was found to be 0.19 nM; in the data set on Neutrophil [2], 360 pM. Besides, the Activity in [3] is recorded as less than 3%.
On to `CCOC(=O)c1cnn(CC(C)O)c1NC(=O)Nc1ccc(F)cc1` (stereo not drawn), for which the IC50 in the data set on Neutrophil [1] (read-out: IC50) is greater than 10 nM; in the data set on Neutrophil [2], 200 pM. In addition, in the data set with Neutrophil [4], the inhibition at 10 µM came out at 55%. Besides, the Activity in data set [3] was less than 3%.
Regarding `CCOC(=O)c1cnn(CC(O)CC)c1NC(=O)Nc1cccc2ccccc12` (stereo not drawn), the values for the 50% inhibitory concentration (IC50) in the data set with Neutrophil [1] (read-out: IC50) and in the data set with Neutrophil [2] were 12 nM and 9600 pM, respectively. In addition, the Activity in [3] is reported as less than 3%.
Taken in the same sequence, the figures for `CCOC(=O)c1cnn(CC(O)CC)c1NC(=O)Nc1ccc(F)cc1` (stereo not drawn) were 3.2 nM, 1900 pM and less than 3%.
For `CCOC(=O)c1cnn(CC(C)O)c1NC(=O)NC(C)C` (stereo not drawn), the half-inhibitory concentration (IC50) worked out at 90 nM in the data set with Neutrophil [1] (read-out: IC50) and 0.82 pM in the data set on Neutrophil [2]. Further, the Activity in data set [3] is recorded as less than 3%.
`CCOC(=O)c1cnn(CC(O)c2ccccc2)c1NC(=O)Nc1ccccc1` (stereo not drawn): in the data set on Neutrophil [2], the IC50 came out at 45000 pM.
On to `CCOC(=O)c1cnn(CC(C)O)c1NC(=O)N1CCN(Cc2ccccc2)CC1` (stereo not drawn), for which the IC50 with Neutrophil [1] (read-out: IC50) is greater than 10 nM; with Neutrophil [2] it was 0.99 pM. Also, the inhibition at 10 µM with Neutrophil [4] was 63%. Besides, in [3], the Activity is reported as less than 3%.
For `CCOC(=O)c1cnn(CC(C)O)c1NC(=O)Nc1cccc(F)c1` (stereo not drawn), the half-inhibitory concentration (IC50) in the data set with Neutrophil [1] (read-out: IC50) is greater than 10 nM; in the data set with Neutrophil [2], 0.7 pM. Also, the inhibition at 10 µM in the data set with Neutrophil [4] turned out to be 60%. Also, the Activity in the data set on Mus musculus [5] is 2.68%; in the data set on Mus musculus [6] it was 23%; in [3], less than 3%; in the data set with Mus musculus [7], 21%.
`CCOC(=O)c1cnn(CC(O)CC)c1NC(=O)Nc1ccccc1F` (stereo not drawn): the IC50 with Neutrophil [1] (read-out: IC50) stood at 120 nM. Also, the Activity in [3] was less than 3%.
`C[C@@H]1C[C@H]2[C@@H]3CCC4=CC(=O)C=C[C@]4(C)[C@@]3(F)[C@@H](O)C[C@]2(C)[C@@]1(O)C(=O)CO` [DEXAMETHASONE]: in the data set with Mus musculus [8], the protein concentration turned out to be 1.75 µg/mL. For the same compound, the Activity in the data set on Mus musculus [9] is 81%; with Mus musculus [10], 20%; in the data set with Mus musculus [11] it was 35%.
Turning to `CCOC(=O)c1cnn(C)c1NC(=O)N1CCN(Cc2ccccc2)CC1`, the IC50 is 150 nM in the data set on Neutrophil [1] (read-out: IC50) and 54.6 pM with Neutrophil [2]. Besides, the Activity in [3] was less than 3%.
Take `CCOC(=O)c1cnn(CC(C)O)c1NC(=O)Nc1cccc2ccccc12` (stereo not drawn): the IC50 came to 9.8 nM in the data set on Neutrophil [1] (read-out: IC50) and 0.97 pM in the data set with Neutrophil [2]. Besides, the Activity in data set [3] was less than 3%.
As to `CCOC(=O)c1cnn(CC(O)c2ccccc2)c1NC(=O)Nc1cccc(F)c1` (stereo not drawn), the inhibition in vivo at 100 mg/kg in the data set with Mus musculus [12] was determined as 33%.
As for `CCOC(=O)c1cnn(CC(O)c2ccccc2)c1NC(=O)NCc1ccccc1` (stereo not drawn), in the data set with Neutrophil [2], the IC50 was determined as 10000 pM.
Regarding `CCOC(=O)c1cnn(CC(C)O)c1NC(=O)Nc1ccccc1F` (stereo not drawn), the IC50 in the data set with Neutrophil [1] (read-out: IC50) came to 100 nM; in the data set with Neutrophil [2], 0.55 pM. Also, the protein concentration with Mus musculus [5] is 2.62 µg/mL. For the same compound, the Activity in data set [3] is reported as less than 3%; in the data set with Mus musculus [7], 34%.
In the case of `CCOC(=O)c1cnn(CC(O)c2ccccc2)c1NC(=O)Nc1cccc2ccccc12` (stereo not drawn), the IC50 with Neutrophil [1] (read-out: IC50) came out at 7.8 nM. For the same compound, the Activity in data set [3] is less than 3%.
Regarding `CCOC(=O)c1cnn(CC(O)CC)c1NC(=O)NC(C)C` (stereo not drawn), the IC50 in the data set on Neutrophil [1] (read-out: IC50) was greater than 10 nM. In addition, the inhibition at 10 µM in the data set with Neutrophil [4] is 52%. The Activity in data set [3] was less than 3%.

By IC50 is commonly meant the concentration that gives 50% inhibition. In general, inhibition refers to the change of the read-out against control, counted positive when it falls. For orientation: inhibition in vivo means the change of the read-out against control, counted positive when it falls.
